Reference: article PMC8973362, “5-(Sulfamoyl)thien-2-yl 1,3-oxazole inhibitors of carbonic anhydrase II with hydrophilic periphery” (Journal of Enzyme Inhibition and Medicinal Chemistry, 2022)
Read-outs that look alike come from different tables or passages of the source.

What was measured:
[1] = target: T1, hCA II (Homo sapiens, UniProt P00918); assay: stopped-flow CO2 hydrase assay, hCA II; type: biochemical
T1 construct: made in house

[2] = target: T2, hCA I (Homo sapiens, UniProt P00915); assay: stopped-flow CO2 hydrase assay, hCA I; type: biochemical
T2 construct: made in house

[3] = tested on: intraocular pressure; assay: intraocular pressure (IOP) lowering in normotensive rabbits; type: in vivo; settings: 1% eye drop, normotensive New Zealand White rabbits, n = 6, tested twice; comparable to 1 (dorzolamide, 2% eye drops)
[4] = target: T3, hCA XII (Homo sapiens, UniProt O43570); assay: stopped-flow CO2 hydrase assay, hCA XII; type: biochemical
T3 construct: made in house

[5] = target: T4, hCA IV (Homo sapiens, UniProt P22748); assay: stopped-flow CO2 hydrase assay, hCA IV; type: biochemical
T4 construct: made in house
T4 sequence (P22748 19-312): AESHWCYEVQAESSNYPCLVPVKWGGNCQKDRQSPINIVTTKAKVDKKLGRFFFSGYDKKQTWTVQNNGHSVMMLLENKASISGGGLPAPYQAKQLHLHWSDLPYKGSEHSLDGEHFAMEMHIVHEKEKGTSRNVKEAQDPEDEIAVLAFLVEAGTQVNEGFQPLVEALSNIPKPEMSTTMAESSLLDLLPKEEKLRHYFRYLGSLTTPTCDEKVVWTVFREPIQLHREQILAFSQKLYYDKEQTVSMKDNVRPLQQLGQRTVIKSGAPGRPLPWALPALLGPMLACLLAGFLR

T2 sequence (P00915 whole entry): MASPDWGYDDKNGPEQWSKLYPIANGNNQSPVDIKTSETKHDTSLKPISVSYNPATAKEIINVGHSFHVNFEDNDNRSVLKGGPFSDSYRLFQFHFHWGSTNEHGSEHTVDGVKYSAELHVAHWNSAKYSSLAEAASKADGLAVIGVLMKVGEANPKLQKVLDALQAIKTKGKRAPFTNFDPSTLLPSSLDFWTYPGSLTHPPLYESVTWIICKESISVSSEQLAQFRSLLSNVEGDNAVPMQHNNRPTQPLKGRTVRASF
T3 sequence (O43570 25-354): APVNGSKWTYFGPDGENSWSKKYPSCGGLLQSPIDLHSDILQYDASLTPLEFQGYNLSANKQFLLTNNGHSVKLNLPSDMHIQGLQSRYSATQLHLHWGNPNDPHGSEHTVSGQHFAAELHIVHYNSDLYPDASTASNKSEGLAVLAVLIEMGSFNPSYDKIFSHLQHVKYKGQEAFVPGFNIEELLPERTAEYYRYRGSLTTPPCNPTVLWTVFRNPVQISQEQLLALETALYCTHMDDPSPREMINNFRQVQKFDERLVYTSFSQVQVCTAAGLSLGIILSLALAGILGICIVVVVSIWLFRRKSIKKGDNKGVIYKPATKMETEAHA

Compound	Ki [1] [nM]	Ki [2] [nM]	IOP lowering effect [3]	Ki [4] [nM]	Ki [5] [nM]	Ki ([1]; mean from three assays by stopped flow technique, errors ± 5–10%, read-out: Ki hCA II) [nM]	Ki ([2]; mean from three assays by stopped flow technique, errors ± 5–10%, read-out: Ki hCA I) [nM]	Ki ([4]; mean from three assays by stopped flow technique, errors ± 5–10%, read-out: Ki hCA XII) [nM]	Ki ([5]; mean from three assays by stopped flow technique, errors ± 5–10%, read-out: Ki hCA IV) [nM]
NS(=O)(=O)c1ccc(-c2cnc(C(=O)N3CCNCC3)o2)s1 [7a]	0.069	4	clear IOP lowering effect	3.9	21.6				
NS(=O)(=O)c1ccc(-c2cnc(C(=O)NC3CCNCC3)o2)s1 [7b]		56.8		8.9					
NC1CCN(C(=O)c2ncc(-c3ccc(S(N)(=O)=O)s3)o2)CC1 [7c]	0.41	31.3		5.7	30.6				
NCCNC(=O)c1ncc(-c2ccc(S(N)(=O)=O)s2)o1 [7d]		72.9		9.3					
NCCCNC(=O)c1ncc(-c2ccc(S(N)(=O)=O)s2)o1 [7e]						3.1	58.3	8.8	4.6
